Measured values published in patent US20030113330A1, “Methods for treating pulmonary fibrosis” (priority 1999, published 2003).
Where no end group is shown, it is not given here. The star is where a group is joined. CH2Cl = ClC*; CH2F = FC*

How the values were obtained:
[1] = test system: primary rat AEC; conditions: for inhibition of amiodarone-induced apoptosis: captopril 500 ng/ml, saralasin 50 ug/ml, Losartan 5 pg/ml, amiodarone 2.5 ug/ml for chelerythrine, orthovanadate
Method: (§1) The human lung adenocarcinoma cell line A549 (ATCC) was cultured in Ham's F12 medium supplemented with 10% fetal bovine serum (FBS). Primary alveolar epithelial cells were isolated from adult male Wistar rats. The primary cells were studied at day two of culture, a time at which they are type II cell-like by accepted morphologic and biochemical criteria. […] All cells were seeded in 24-well or 6-well chambers, and all experiments were conducted at subconfluent densities of 80-90% in serum-free Ham's F12 medium. Test reagents were diluted with Ham's F12 medium and were applied for 20 hours at 37C. in a 5% CO2 incubator.
(§2) Apoptotic cells were detected using propidium iodide (PI) following digestion of ethanol-fixed cells with DNAse-free RNAse in PBS containing 5 ug/ml PI. […] In replicate culture vessels, necrosis was detected as the loss of exclusion of PI after application of the vital dye directly to the cell culture medium at 5 ug/ml final concentration. Red fluorescent (PI-POSITIVE) cells (>570 nm) were scored over the subsequent hour as a percentage of the total cells in any given field. A minimum of 4 separate fields were scored in each of three separate culture vessels per experiment condition; all experiments were performed at least twice and the data were compiled. Although all necrotic cells are PI-positive, some apoptotic cells may also take up the dye but these comprise a minor fraction of the total dead cell population.
(§3) In all assays, detached cells were retained by centrifugation of the culture vessel at 300×g for 10 minutes with a centrifuge rotor designed for culture plates. For detection of necrosis (dye exclusion of PI), the PI was added directly to the cell culture medium immediately before centrifugation of the culture vessel. For detection of apoptosis, ethanol was added directly to the cell culture medium to a final concentration of 70% immediately before the centrifugation. Afterward, the ethanol was carefully removed and the total cell population (attached plus sedimented detached cells) were stained with PI as described above.

[2] = test system: primary rat AEC; experiment: Fas ligand-induced apoptosis of primary rat alveolar epithelial cells; assay type: cell-based; conditions: captopril, lisinopril 500 ng/ml; caspase inhibitors 60 uM
Method: (§4) Lung Cell Isolation and Detection of Apoptosis In Vitro. Primary alveolar epithelial cells (AEC) were isolated from adult male Wistar rats as described above. The primary cells were studied at day two of culture, a time at which they are type II cell-like by accepted morphologic and biochemical criteria, see Paine et al., Am. J. Physiol. […] All cells were seeded in 24-well or 6-well chambers, and all experiments were conducted at subconfluent densities of 80-90% in serum-free Ham's F12 medium. Test reagents were diluted with Ham's F12 medium and were applied for 20 hours at 37° C. in a 5% CO2 incubator.
(§5) Detection of apoptotic cells with propidium iodide (PI) was conducted as described above, following digestion of ethanol-fixed cells with DNAse-free RNAse in PBS containing 5 ug/ml PI.
Expression of FAS by alveolar epithelial cells is observed during bleomycin-induced fibrogenesis in mice. See Hagimoto, et al., Am. J. Respir. Cell Mol. Biol. 16:91-101 (1997). […] Apoptosis was detected by quantitation of fragmented nuclei (see above).
Cell Culture and Detection of Apoptosis. The human lung adenocarcinoma cell line A549 was obtained from American Type Culture Collection and cultured in Ham's F12 medium supplemented with 10% fetal bovine serum (FBS). Primary alveolar epithelial cells were isolated from adult male Wistar rats as described earlier (Uhal, B. D., I. Joshi, A. True, S. Mundle, A. Raza, A. Pardo and M. Selman. Fibroblasts isolated after fibrotic lung injury induce apoptosis of alveolar epithelial cells in vitro. Am. J. Physiol. 269:L819-L828, 1995); Wang, R., A. Zagariya, 0. Ibarra-Sunga, C. […] Am. J. Physiol. 276:L885-L889 (1999)). […] All cells were seeded in 24-well or 6-well chambers, and all experiments were conducted at subconfluent densities of 80-90% in serum-free Ham's F12 medium. Test reagents were diluted with serum-free Ham's F12 medium and were applied under serum-free conditions for 20 hours at 37C. in a 5% CO2 incubator. Detection of apoptotic cells with propidium iodide (PI) was conducted as described above Am. J. Physiol. 275:L1013-1017 (1998); Uhal et al., following digestion of ethanol-fixed cells with DNAse-free RNAse in PBS containing 5 μg/ml PI. In all assays, detached cells were retained by centrifugation of the culture vessels during fixation with 70% ethanol, or by retention of culture media and recovery by centrifugation before assay.
Apoptosis was detected by nuclear fragmentation as described above.

[3] = test system: primary rat alveolar epithelial cells; experiment: Apoptosis of rat AEC induced by human lung fibroblast-conditioned media; assay type: cell-based; conditions: saralasin 50 ug/ml, DEVD-fmk 60 uM, anti-ANGII IgG 1 ug/ml
Description: Fibroblast Isolation, Culture and Preparation of Conditioned Media. Primary human lung fibroblasts were isolated at the National Institute of Respiratory Diseases, Mexico. […] Of these, “fibrotic” lung fibroblast strains (HIPF-X, where X=patient number) were derived from patients suffering from either of two different types of interstitial lung disease (ILD): Idiopathic Pulmonary Fibrosis (IPF) and Chronic Hypersensitivity Pneumonitis (CHP). In both diseases, patients had clinical, functional and radiologic features which fulfill the diagnostic criteria for an ILD. […] Briefly, all patients had progressive dyspnea, bilateral reticulonodular images on chest roentgenogram, restrictive lung functional impairment with decreased lung volumes and compliance, and hypoxemia at rest that worsened with exercise. […] Patients with IPF had neither antecedents of any occupational or environmental exposure nor other known cause of ILD. […] Biopsies lacked granulomas, vasculitis, microorganisms, and inorganic material by polarized light microscopy.
Control fibroblasts were obtained from individuals having undergone a lobectomy for removal of a primary lung tumor. […] Lung fibroblasts from normal or fibrotic tissue were isolated by trypsin dispersion, and fibroblast strains were established in Dulbecco's modified Eagle's medium (or in Ham's F-12 medium) supplemented with 10% fetal calf serum, 200 U/ml penicillin, and 200 mg/ml streptomycin. […]
Epithelial Cell Culture and Detection of Apoptosis. […] All epithelial cell preparations were greater than 90% pure as determined by acridine orange uptake into lamellar bodies. […] Epithelial cell apoptosis was detected by the assessment, under fluorescence microscopy, of chromatin condensation and nuclear fragmentation within cytokeratin-positive cells after ethanol fixation and staining with propidium iodide. […]
The percentage increase in rat AEC apoptosis was determined by propidium iodide assay of primary alveolar epithelial cells exposed to serum-free conditioned media, see Uhal et al., Am.

[4] = test system: primary rat AEC; experiment: Angiotensin II-induced apoptosis in primary rat AEC (nuclear fragmentation, PI); assay type: cell-based; conditions: ANGII 5.0 uM; saralasin 50 ug/ml, lisinopril 500 ng/ml
Description: Cell Culture. The human lung adenocarcinoma cell line A549 was obtained from American Type Culture Collection and cultured in Ham's F12 medium supplemented with 10% fetal bovine serum (FBS). Primary alveolar epithelial cells were isolated from adult male Wistar rats as described in Uhal et al., Am. J. Physiol. Suppl. (Oct.) 261:110-117 (1991) and Uhal et al., Am. J. Physiol. 269:L819-L828 (1995). The primary cells were studied at day two of culture, a time at which they are type II cell-like by accepted morphologic and biochemical criteria, see Uhal, Am. J. Physiol. 272:L1031-L1045 (1997). […] J. Physiol. Suppl. (October) 261:110-117 (1991). All cells were seeded in 24-well or 6-well chambers, and all experiments were conducted at subconfluent densities of 80-90% in serum-free Ham's F12 medium. Test reagents were diluted with Ham's F12 medium and were applied for 20 h at 37° C. in a 5% CO2 incubator.
Detection of Apoptosis. Detection of apoptotic cells with propidium iodide (PI) was conducted as described in Uhal, et al., Am. J. Physiol. 275:L1013-1017 (1998) following digestion of ethanol-fixed cells with DNAse-free RNAse in PBS containing 5 ug/ml PI. Assay of Annexin V binding by flow cytometry was performed essentially as described for human lung fibroblasts in Uhal, et al., Am. J. Physiol. 275:L998-L1005 (1998) after trypsinization of cells from culture vessels. Assay of Caspase-3 activity was performed on viable suspension cultures as reported in Uhal, et al., Am. J. Physiol. 275:L1013-1017 (1998). In all assays, detached cells were retained by centrifugation of the culture vessels during fixation with 70% ethanol, or by retention of culture media and recovery by centrifugation before assay.
For microscopy, cells were cultured on glass cover slips, incubated with test reagents and fixed with 70% ethanol. The fixed cells were immunolabeled overnight at 4° C. with monoclonal antibodies to cytokeratins 7 and 19 (Chemicon International, Temecula, Calif.), and then for one hour at 37° C. with anti-mouse IgG-rhodamine and DNAse-free RNAse (Boehringer Mannheim, Indianapolis, Ind.) The cover slips were then rinsed in distilled water three times and mounted under Fluoromount Solution (Southern Biotechnology Associates, Birmingham, Ala.) containing 5 ug/ml propidium iodide. Photomicroscopy was performed as described in Uhal, et al., Am. J. Physiol. 275:L1013-1017 (1998).
Apoptosis in alveolar epithelial cells was quantitated by fluorescence detection of chromatin condensation and nuclear fragmentation in alcohol-fixed cells stained with propidium iodide. See Uhal, et al., Am. J. Physiol. 275:L1013-1017 (1998). […] After 20 h, the culture vessel was centrifuged to retain detached cells and labeled with anticytokeratin antibodies and propidium iodide. […] Double labeling with PI and monoclonal antibodies to cytokeratins 7 and 19 identified cells with both apoptotic nuclear morphology and positive anticytokeratin immunoreactivity.

[5] = test system: primary alveolar epithelial cells (AEC); experiment: Bleomycin-induced apoptosis of primary AEC in vitro
Method: as §4, §5
Apoptosis was detected as described above.

[6] = test system: adult male Wistar rats; conditions: 8 U/kg intratracheal, 14 days
Method: Adult male Wistar rats were given intratracheal instillations of 8 U/kg bleomycin sulfate (BLEO) or sterile saline. […] Lung fibrosis was assessed by picrosirius red (PR) quantitation of lung collagen and by hydroxyproline (HP) assay at 14 days after BLEO administration. At the same time point, fragmented DNA in lung epithelial cells was detected by in situ end labeling (ISEL).
Animals and Induction of Pulmonary Fibrosis. Forty adult male Wistar rats, 175-200 grams, were divided into four groups; three groups received a single intratracheal instillation of 8 units per kilogram of bleomycin sulfate (BLEO) in sterile saline. Two days before the administration of BLEO, one group received captopril in the drinking water at a concentration of 500 mg/liter. […] Control animals (NORM) received administrations of the vehicles only.
Immediately before sacrifice, animals were given intraperitoneal injections of sodium pentobarbital and the trachea was cannulated. The middle right lobe was ligated at the hilus, was excised distal to the ligation and was immediately frozen in liquid N2 for hydroxyproline assay of total collagen (see below). The remaining lung tissues were carefully removed and were instilled with 4% paraformaldehyde in PBS at 20 cm H2O constant pressure, then immersed in the same fixative for two hours. The fixed tissues were washed with PBS three times for 15 minutes and were then embedded in paraffin. Five-micron sections of lung were deparaffinized by passing through xylene, xylene:alcohol 1:1, 100% alcohol and 70% alcohol for 10 minutes each. Ethanol was removing by rinsing with distilled water.
In situ end-labeling (ISEL) of fragmented DNA. ISEL was conducted by a modification of the method of Mundle et al., Cell Death and Differentiation, 1: 117-122 (1994). Briefly, ethanol was removed from deparaffinized lung sections by rinsing in distilled water for at least 10 minutes. The slides were then placed in 3% hydrogen peroxide (Sigma Chemical, St. Louis, Mo.) for 30 minutes at 20° C., rinsed with PBS, and incubated with Proteinase K (Sigma Chemical, St. Louis, Mo.) in saline sodium citrate solution (SSC) (0.3 M NaCi and 30 mM sodium citrate in water, pH 7.0) for 15 minutes at 37° C. Samples were rinsed once in water, three times in 0.15 M PBS for 4 minutes each, and then incubated in SSC at 80° C. for 20 minutes. After four rinses in PBS and four rinses in Buffer A (50 mM Tris/HCl, 5 mM MgCl, 10 mM β-mercaptoethanol and 0.005% BSA in water, pH 7.5), the sections were incubated at 18° C. for two hours with ISEL solution (0.001 mM digoxigenin-dUTP, 20 U/ml DNA Polymerase 1 and 0.01 mM each of dATP, dCTP and dGTP in Buffer A). The sections were then rinsed thoroughly five times with Buffer A and three times with PBS. Detection of incorporated dUTP was achieved by incubation for two hours at 37° C. with AP-conjugated anti-digoxigenin (Boerhinger Mannheim, Indianapolis, Ind.) at a 1:400 dilution. Bound AP-antibody complexes were detected with the Fast Blue chromogen system and the sections were mounted with Fluoromount Solution (Southern Biotechnology, Birmingham, Ala.).
Identification of Collagen. Collagens were localized through staining of lung sections by the picrosirius red technique, see Pick et al., Am. J. Pathol. 134:365-371 (1989), which has absolute specificity for collagen. Briefly, sections deparaffinized with xylenes were rehydrated through a descending series of ethanols to distilled water. The hydrated sections were immersed in 0.2% aqueous phosphomolybdic acid for 2 minutes, rinsed in distilled water and then stained for 110 minutes with 0.1% Sirius Red F3BA (Pfal and Bauer, Stamford, Conn.) in saturated aqueous picric acid, pH 2.0. The sections were washed for 2 minutes in 0.01 N HCl, rinsed for 45 seconds in 70% ethanol, dehydrated in three changes of absolute alcohol, cleared in xylene and mounted in a nonaqueous mounting medium.

[7] = test system: primary cultures of rat AEC; assay type: cell-based; conditions: male, Wistar, rat, 20 h
Method: (§6) The human lung adenocarcinoma cell line A549 (ATCC) was cultured in Ham's F12 medium supplemented with 10% fetal bovine serum (FBS). Primary alveolar epithelial cells were isolated from adult male Wistar rats. The primary cells were studied at day two of culture, a time at which they are type II cell-like by accepted morphologic and biochemical criteria. All primary cell preparations were of better than 90% purity assessed by acridine orange staining. All cells were seeded in 24-well or 6-well chambers, and all experiments were conducted at subconfluent densities of 80-90% in serum-free Ham's F12 medium. Test reagents were diluted with Ham's F12 medium and were applied for 20 hours at 37C. in a 5% CO2 incubator.

[8] = test system: primary rat AEC; experiment: Amiodarone-induced net cell loss in primary rat AEC cultures; assay type: cell-based; conditions: 20 hours exposure
Method: (§7) Primary alveolar epithelial cells were isolated from adult male Wistar rats. The primary cells were studied at day two of culture, a time at which they are type II cell-like by accepted morphologic and biochemical criteria. All primary cell preparations were of better than 90% purity assessed by acridine orange staining. All cells were seeded in 24-well or 6-well chambers, and all experiments were conducted at subconfluent densities of 80-90% in serum-free Ham's F12 medium. Test reagents were diluted with Ham's F12 medium and were applied for 20 hours at 37C. in a 5% CO2 incubator.
(§8) Importantly, unattached cells were recovered and included in the analyses, and thus the data represent true loss of cells rather than simple detachment from the substratum.

[9] = test system: human A549 cells; assay type: cell-based; conditions: human, 20 h
Method: as §6
Apoptotic cells were detected using propidium iodide (PI) following digestion of ethanol-fixed cells with DNAse-free RNAse in PBS containing 5 ug/ml PI. […] In replicate culture vessels, necrosis was detected as the loss of exclusion of PI after application of the vital dye directly to the cell culture medium at 5 ug/ml final concentration. Red fluorescent (PI-POSITIVE) cells (>570 nm) were scored over the subsequent hour as a percentage of the total cells in any given field. A minimum of 4 separate fields were scored in each of three separate culture vessels per experiment condition; all experiments were performed at least twice and the data were compiled. […]

[10] = test system: A549 cells; conditions: human, 20 h
Method: as §1, §2, §3

[11] = test system: A549 cells; experiment: Amiodarone-induced net cell loss in A549 cultures; assay type: cell-based, human; conditions: 20 hours exposure
Method: as §7, §8

Compound: [Na+].[Na+].[Na+].[O]=[V]([O-])([O-])[O-] [sodium orthovanadate]
- inhibition of amiodarone-induced apoptosis [1]: not

Compound: Asp-Glu-Val-Asp-[O-Me]-CH2F (DEVD(OMe)-CH2F; not fully specified; printed as Asp-Glu-Val-Asp-[O-Me]-CH2F) [DEVD-fmk]
- inhibition of Fas ligand-induced apoptosis of primary rat AEC (words) [2]: comparable efficacy to inhibit apoptosis
- inhibition of apoptosis induced by HIPF-conditioned media [3]: completely abrogated

Compound: COc1ccc2c(c[n+](C)c3c4cc5c(cc4ccc23)OCO5)c1OC [chelerythrine]
- inhibition of amiodarone-induced apoptosis [1]: significantly inhibited
- inhibition of ANGII-induced apoptosis of primary rat AEC [4]: significantly inhibited

Compound: Tyr-Val-Ala-Asp-[O-Me]-CH2Cl (YVAD(OMe)-CH2Cl; not fully specified; printed as Tyr-Val-Ala-Asp-[O-Me]-CH2Cl) [YVAD-cmk]
- inhibition of Fas ligand-induced apoptosis of primary rat AEC (words) [2]: comparable efficacy to inhibit apoptosis

Compound: O=C(O)C1=CC(=C(c2ccc(O)c(C(=O)O)c2)c2ccc(O)c(C(=O)O)c2)C=CC1=O [aurintricarboxylic acid]
- inhibition at 10 µM ([5]; Rattus norvegicus, Epithelial cell, read-out: inhibition of bleomycin-induced apoptosis of AEC in vitro): 59%

Compound: bleomycin sulfate
- concentration at which induction of apoptosis was statistically significant ([5]; 20 h): 5 µM
- increase in alveolar septal collagen (picrosirius red) [6]: 100%
- increase in peribronchial collagen (picrosirius red) [6]: 133%

Compound: CCCCc1oc2ccccc2c1C(=O)c1cc(I)c(OCCNCC)c(I)c1 [desethylamiodarone]
- concentration at which significant cell death / toxicity begins [7]: 100 ng/mL
- cytotoxicity at the higher doses [7]: ~100%
- effect on total cell number [8]: significantly decreased
- concentration at which necrosis / significant cell death begins [9]: 5000 ng/mL
- concentration at which apoptosis begins [10]: 5000 ng/mL
- concentration at which significant apoptosis begins ([1]; male, Wistar, rat, 20 h): 2500 ng/mL
- effect on total cell number [11]: significantly decreased
